The results in this text go back to patent publication US20140378502A1, “Par1 Inhibitors for Use in the Treatment or Prevention of Paramyxoviridae Infections” (Université Laval, priority 2011, published 2014).

Series [1] relates to hMPV strain C-85473. The series can be described thus: hMPV-infected BALB/c mice, five-day pre-exposure prophylactic treatment regimen (experiment 2). It is filed as in vivo. Particulars: 500 μM, 5-day treatment. How it is done:
(§1) hMPV viral titers were determined by 10-fold serial dilutions of virus in 24-well plates containing LLC-MK2 cells. Before infection, cells were washed twice with phosphate-buffered saline (PBS) to remove residual serum proteins that could inhibit trypsin activity. Infected plates were incubated at 37° C. with 5% CO2 and replenished with 1 μl of fresh trypsin (0.0002%) every other day. hRSV viral titers were determined by 10-fold serial dilutions of virus in 24-well plates containing Hep2 cells. Before infection, cells were washed twice with phosphate-buffered saline (PBS). Infected plates were incubated at 37° C. with 5% CO2. On day 4 post infection, plates were fixed with 80% acetone at −20° C. for 30 min, washed with PBS and air dried. The presence of hRSV was detected by an immuno-staining assay using a monoclonal goat Anti-Respiratory Syncytial Virus primary antibody and a donkey anti-Goat IgG Secondary Antibody, HRP conjugate (both from Cederlane). Virus titers were reported as 50% tissue culture infectious doses (TCID50) per ml, per mouse or per gram of lung. The lower limit of detection of the assay is 10^2 TCID50 per gram. TCID50 were calculated by the Reed and Muench method.
(§2) In the second protocol, groups of 18 4-6-week-old BALB/c mice (Charles River Laboratories) were infected intranasally with 6-8×10^5 TCID50 hMPV strain C-85473 in 25 μl of OptiMEM™ supplemented with the PAR-1 agonist, PAR-1 antagonist or control peptide at a final concentration of 500 μM. As infected controls, groups of 18 4-6-week-old BALB/c mice (Charles River Laboratories) were infected intranasally with 6-8×10^5 TCID50 hMPV strain C-85473 in 25 μl of OptiMEM™ supplemented with H2O or DMSO. As uninfected control, groups 18 mice were sham infected with the concentrated supernatant of non-infected LLC-MK2 cells supplemented with the PAR-1 agonist, PAR-1 antagonist or control peptide at a final concentration of 500 μM or DMSO. On day 1 through 4 post infection, animals were treated with the PAR-1 agonist, PAR-1 antagonist or control peptide at a final concentration of 50 μM or 500 μM, or H2O or DMSO for control groups, resulting in a 5-day treatment in total. Animals were housed in groups of five and three in micro-isolator cages. The animals were evaluated on a daily basis for mortality, weight loss, and the presence of symptoms. On day 5 post-infection, lungs were removed from six mice per group for the evaluation of viral titres by cell culture and cytokine expression by Iuminex™. Lungs of another six mice per group were removed for histopathological analysis.
(§3) On day 5 post infection, six animals per group were sacrificed, the lungs were removed and snap frozen in liquid nitrogen. Lungs were weighed, homogenized in 1 ml of PBS, centrifuged (2000 rpm, 10 min) and the supernatant was used to infect LLC-MK2 monolayers (in case of hMPV-infected mice) or Hep2 monolayer (in case of hRSV-infected mice) for virus titration as reported in the section “Viral titers”.
(§4) 250 μL of lung homogenates (see section “Pulmonary viral titers”) were added to 250 μl 50 mM KPO4, pH 6.0 buffer containing 0.2% CHAPS {3-[(3-cholamidopropyl)-dimethylammonio]1-1-propanesulfonate} (Sigma) and 0.2% of a protease inhibitor cocktail (Sigma) and stored at −20° C. until the day of analysis. Samples were centrifuged at 13,800×g for 10 min at 4° C., and 50 μl of the supernatant was used for cytokine quantification. Levels of interleukin-4, IL-6, IL-12(p40), IL-12(p70), IFN-γ, KC, MCP-1, MIP-1α, RANTES were determined by the use of a 9-plex mouse bead kits (BioRad™/Millipore™) according to the manufacturer's instructions. Experiments were performed in a 96-well filter plate and results were analysed with the Luminex™ system (Qiagen™).
On day 5 post infection, 6 animals per group were sacrificed, and the lungs were collected at specified time points and fixed with 4% buffered formalin. […]

Series [2] can be described thus: Uninfected (sham infected) mice treated for 5 days, check for toxic and non specific effects. Format: in vivo, BALB/c mice. The conditions noted are these: 500 μM. How it is done:
as §2, with “Lungs of another six mice per group were removed for histopathological analysis.” left out
as §4

Series [3] concerns hMPV strain C-85473. The series can be described thus: hMPV-infected BALB/c mice, five-day treatment started simultaneously or 24 h post infection (experiment 3). It is filed as in vivo. The conditions noted are these: 500 μM. How it is done:
as §1
In a third protocol, Two groups of 12 4-6-week-old BALB/c mice (Charles River Laboratories) were infected intranasally with 6×105 TCID50 hMPV strain C-85473 in 25 μl of OptiMEM™, supplemented with the PAR-1 agonist or PAR-1 antagonist at a final concentration of 500 μM and treated on days 1 through 4 post infection with the PAR-1 agonist or PAR-1 antagonist (500 μM). Two more groups of 4-6-week-old BALB/c mice (Charles River Laboratories) were infected intranasally with 6×105 TCID50 hMPV strain C-85473 in 25 μl of OptiMEM™. These groups were treated from day 1 though 5 post infection (treatment delayed 24 h post-infection) with the PAR-1 agonist or PAR-1 antagonist (500 μM). As infected controls, groups of 12 4-6-week-old BALB/c mice (Charles River Laboratories) were infected intranasally with 4×105 TCID50 hMPV strain C-85473 in 25 μl of OptiMEM supplemented with DMSO. All animals were housed in groups of four in micro-isolator cages. The animals were evaluated on a daily basis for mortality, weight loss, and the presence of symptoms. On day 5 post-infection, lungs were removed from six mice per group for the evaluation of viral titres by cell culture
as §3
Differences in weight loss between groups was analysed by repeated measures two-way ANOVA. Viral titers, cytokine levels and mean histopathology scores were analysed using student t-test.

`CC(C)c1ccc(Cn2ccc3c4c(N)nc(NC5CC5)nc4ccc32)cc1` [PAR-1 antagonist, N3-cyclopropyl-7-{[4(I-methylethyl)phenyl]methyl)-7H-pyrrolo[3,2-f]quinazoline-I,3-diamine]: in the series on hMPV strain C-85473 [1] (day 5 post hMPV infection, infected treated vs infected untreated mice), the “pulmonary inflammation (histopathology)” value was “no pulmonary inflammation was observed”. The “pulmonary inflammatory cytokine/chemokine levels compared to all other groups of infected mice” value with hMPV strain C-85473 [1] (day 5 post infection, Luminex) is “significant reduction in all of the evaluated inflammatory cytokine/chemokine levels”. The pulmonary viral titers result in the series on hMPV strain C-85473 [1] (day 5 post infection, vs other infected groups) is “reduced pulmonary viral titers”; in the series on hMPV strain C-85473 [3] (day 5 post infection, treatment simultaneous or started 24 h post infection, vs infected/untreated), “reduction in pulmonary viral titers”. The “weight loss (and symptoms)” value in the series on hMPV strain C-85473 [1] (hMPV-infected mice, vs infected untreated mice) is “abolished all weight loss and symptoms”. Further, the “weight loss or symptoms in uninfected mice” value in series [2] was “In none of the uninfected groups significant weight loss or symptoms were observed”. Also, the weight loss entry in the series on hMPV strain C-85473 [3] (5-day prophylactic treatment started simultaneously with infection, vs infected/untreated group (FIG. 12)) was “significant reduced weight loss”; in the series with hMPV strain C-85473 [3] (5-day treatment started 24 h post infection, vs infected/untreated mice (FIG. 13)) it was “lost less weight than infected/untreated mice and weight loss started at a later time point”; in the series with hMPV strain C-85473 [3] (5-day treatment started 24 h post infection, vs infected/untreated mice (FIG. 13), listed as PAR1 antagonists), “started losing weight later and lost less weight than untreated infected mice, although the difference was not found to be statistically significant”.
